Results taken from paper PMC3855971, “Study of Possible Mechanisms Involved in the Inhibitory Effects of Coumarin Derivatives on Neutrophil Activity” (Oxidative Medicine and Cellular Longevity, 2013).

Experiments:
[1] = molecular target: T1, PKCδ (Homo sapiens, UniProt Q05655); assay: Western blot, phosphorylation of PKCδ (Thr505) in PMA stimulated neutrophils; assay type: cell-based; settings: 10 and 100 μmol/L, PMA 0.15 μmol/L
T1 construct: endogenous in cells; host or cells: isolated human neutrophils
Description: (§1) Phosphorylation of PKC isoenzymes α, βII, and δ, as well as NADPH oxidase subunit p40^phox, was detected using the method described by Jančinová et al..
(§2) The suspension of isolated neutrophils (100 μL) containing 5 × 10^6 cells was preincubated at 37°C for 60 seconds with different concentrations of HHC or HHDC (10, 100 μmol/L) prior to addition of PMA (0.15 μmol/L). Incubation with PMA (5 min) was stopped by using a solubilisation buffer (20 mmol/L Tris-HCl, 5 mmol/L EDTA, 1% Triton, 10% glycerol, 10 mmol/L NaF, 1 mmol/L sodium orthovanadate, 208 μmol/L AEBF, 0.17 μmol/L aprotinin, 8 μmol/L bestatin, 2.8 μmol/L E-64, 4 μmol/L leupeptin, and pH 7.4). The suspension was sonicated at 4°C for […] and centrifuged at 14 000 ×g at 4°C for 5 min to remove unbroken cells. […] From the two strips taken, one was detected for PKCα, βII (area between 60 and 100 kD) and the second for detection of β-actin (30–60 kD), which represented the internal control. […]
(§3) NADPH oxidase subunit p40^phox and PKC isoenzyme δ were detected in the same blots after their washing and incubation with 10x diluted stripping buffer (Reblot Plus Mild Solution, Millipore, Temecula, CA, USA) for 15 min and washed overnight in diluent buffer (1% bovine serum albumin in Tris buffered saline). […] Autoradiogram bands were quantified using the Image J programme. […]

[2] = tested on: PKC; assay: PKC activity assay (ELISA kit) in cytosol of PMA stimulated neutrophils; assay type: cell-based, human; settings: for PKC activity (percentage of stimulated PMA control): 30 min incubation, PMA 0.15 μmol/L 3 min, mean ± SEM, n = 8
Description: PKC activity in the cytosol was detected by the modified method of Varga et al.. Isolated human neutrophils (5 × 10^5/mL) were incubated 30 min with HHC (1, 10, and 100 μmol/L) or HHDC (1, 10, and 100 μmol/L) at 37°C. Neutrophils were then stimulated with PMA (0.15 μmol/L, final concentration) at 37°C for 3 min. The reaction was stopped by addition of 10 vol of ice-cold PBS. After centrifugation (500 ×g, 4°C, 10 min) the cells were resuspended in sample buffer (20 mmol/L TRIS-HCl, 5 mmol/L EDTA, 1% Triton, 10% glycerol, and protease inhibitor cocktail), sonicated on ice, and centrifuged (14 000 ×g, 5 min, 4°C). The cytosolic fractions were transferred to a prechilled 1.5 mL microcentrifuge tube and stored at –70°C. Protein content of cytosol fraction was measured using Bradford Dye Reagent Detection Kit (Bio-Rad, USA). PKC activity was measured with a Nonradioactive Protein Kinase Assay kit (Assay Designs, Ann Arbor, MI, USA), which is based on a solid-phase enzyme-linked immunoabsorbent assay (ELISA), utilising a specific synthetic peptide as substrate for PKC and a polyclonal antibody recognizing the phosphorylated form of the substrate. The assay is developed with tetramethylbenzidine substrate and a colour develops in proportion to PKC phosphotransferase activity. The colour development was stopped with acid stop solution and the intensity of the colour was measured in a microplate reader at 450 nm. The data were expressed as relative kinase activity per 1 mg of protein.

[3] = tested on: extracellular ROS production in PMA stimulated human neutrophils; assay: Extracellular chemiluminescence (isoluminol/HRP) of PMA stimulated neutrophils; assay type: cell-based; settings: for Effect on extracellular ROS production: 0.01–100 μmol/L, PMA stimulated; for EC50: Homo sapiens, PMA 0.05 μmol/L, 37°C, isoluminol-enhanced CL integrated over 1800 s, mean ± SEM, read-out: EC50, extracellular chemiluminescence (50% inhibition of control CL); for EC50 / IC50: Neutrophil; for IC50: PMA stimulated human neutrophils, read-out: IC50 of control extracellular chemiluminescence
Description: (§4) The effect of HHC or HHDC (0.01, 0.1, 1, 10, and 100 μmol/L) on extra- and intracellular ROS production was measured in unstimulated and PMA (0.05 μmol/L) stimulated neutrophils (5 × 10^5/sample) by isoluminol-/luminol-enhanced chemiluminescence (CL). Extracellular CL was determined in the system containing isoluminol (5 μmol/L) and HRP (8 U/mL). Intracellular CL was measured with luminol (5 μmol/L) in the presence of the extracellular scavengers superoxide dismutase (100 U/mL) and catalase (2 000 U/mL). […] Data were based on integral values of CL over 1800 s, (RLU × s; RLU: relative light units).

[4] = tested on: human neutrophils; assay: Cytotoxicity by ATP liberation (luciferin-luciferase chemiluminescence); assay type: cell-based; settings: 1, 10, and 100 μmol/L
Description: The cytotoxic effect of HHC and HHDC was evaluated by means of ATP liberation by the luciferin-luciferase chemiluminescence. The neutrophil suspension (30 μL; 30 000 cells/sample) and 20 μL of Tyrode's solution were incubated with 50 μL of HHC or HHDC (1–100 μmol/L) for 15 min at 37°C. Ten microliters of a mixture of luciferin (1.6 μg/sample) and luciferase (45 000 U/sample) was added, and the chemiluminescence was recorded for 60 s. In each experiment, the chemiluminescence of ATP standards (1–500 nmol/L) was measured and the concentrations of ATP in samples were calculated from the calibration curve. The total ATP content was assessed immediately after sonication of neutrophils for 10 s.

[5] = tested on: NADPH oxidase subunit p40^phox; assay: Western blot, phosphorylation of NADPH oxidase subunit p40phox (T154) in PMA stimulated neutrophils; assay type: cell-based, human; settings: 10 and 100 μmol/L, PMA 0.15 μmol/L
Description: as §1, §2, §3

[6] = tested on: intracellular ROS production in PMA stimulated human neutrophils; assay: Intracellular chemiluminescence (luminol with superoxide dismutase and catalase) of PMA stimulated neutrophils; assay type: cell-based; settings: for Effect on intracellular ROS production: 0.01–100 μmol/L, PMA stimulated; for EC50: Homo sapiens, PMA 0.05 μmol/L, 37°C, luminol-enhanced CL integrated over 1800 s, mean ± SEM, read-out: EC50, intracellular chemiluminescence (50% inhibition of control CL)
Description: as §4

[7] = Chemiluminescence assay in cell-free system; assay type: biochemical; settings: luminol, hydrogen peroxide; for EC50: HRP, 37°C, CL over 10 minutes, mean ± SEM, read-out: EC50, cell free chemiluminescence (50% inhibition of control CL)
Description: In the cell-free system, luminol, horseradish peroxidase, and hydrogen peroxide were used for chemiluminescence generation. The 200 μL samples consisted of 50 μL aliquots: HRP (2 U/mL), luminol (10 μmol/L), HHC, or HHDC solutions in the concentrations of 1, 10, or 100 μmnol/L. The reaction was initiated by adding hydrogen peroxide at the final concentration of 100 μmol/L. The chemiluminescence responses were measured for 10 minutes at 37°C in a microplate luminometer Immunotech LM-01T (Czech Republic).

[8] = design: method as in PMID 21187835; settings: cited from earlier work

T1 sequence (Q05655 whole entry): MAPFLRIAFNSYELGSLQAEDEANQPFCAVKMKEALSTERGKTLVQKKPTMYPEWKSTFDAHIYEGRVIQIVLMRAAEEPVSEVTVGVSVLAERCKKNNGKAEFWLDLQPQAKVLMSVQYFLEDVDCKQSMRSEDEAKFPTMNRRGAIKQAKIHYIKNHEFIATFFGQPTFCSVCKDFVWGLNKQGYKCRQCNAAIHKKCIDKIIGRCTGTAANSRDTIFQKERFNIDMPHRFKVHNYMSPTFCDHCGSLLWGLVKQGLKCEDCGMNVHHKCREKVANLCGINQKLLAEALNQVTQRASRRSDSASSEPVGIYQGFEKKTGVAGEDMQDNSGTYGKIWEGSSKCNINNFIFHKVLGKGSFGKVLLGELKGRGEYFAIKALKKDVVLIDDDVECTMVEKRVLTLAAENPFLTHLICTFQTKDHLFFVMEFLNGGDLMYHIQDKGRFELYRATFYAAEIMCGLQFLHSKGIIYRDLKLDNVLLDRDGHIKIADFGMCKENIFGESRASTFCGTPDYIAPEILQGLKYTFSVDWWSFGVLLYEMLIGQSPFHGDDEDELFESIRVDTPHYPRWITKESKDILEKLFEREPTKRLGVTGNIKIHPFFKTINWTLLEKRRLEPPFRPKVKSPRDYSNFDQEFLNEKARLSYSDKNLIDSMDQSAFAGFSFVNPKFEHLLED

Row | SMILES | Effect on phosphorylation of PKCδ [1] | PKC activity (percentage of stimulated PMA control) ([2]; 1 μmol/L) [%] | PKC activity (percentage of stimulated PMA control) ([2]; 10 μmol/L) [%] | PKC activity (percentage of stimulated PMA control) ([2]; 100 μmol/L) [%] | Effect on extracellular ROS production [3] | EC50 [3] [nM] | IC50 [3] [nM] | Effect on spontaneous ATP liberation (cytotoxicity) [4] | Effect on phosphorylation of p40phox subunit [5] | Effect on intracellular ROS production [6] | EC50 ([6]; Neutrophil) [µM] | IC50 ([6]; Neutrophil, PMA stimulated human neutrophils) [µM] | EC50 [7] [nM] | Effect on PKC activity ([2]; 1, 10, and 100 μmol/L, PMA stimulated) | Partition coefficient, compared to that of HHC [8] | IC50 ([7]; horseradish peroxidase, unit inferred, read-out: IC50, chemiluminescence generated by cell-free system) [nM]
1 | O=c1oc2cc(O)ccc2cc1-c1ccc(O)cc1 [HHC, 7-Hydroxy-3-(4′-hydroxyphenyl) coumarin] | did not affect phosphorylation of PKCδ | 87.7 ± 4.2 | 74.8 ± 6.3 | 46.3 ± 1.8 | decreased significantly extracellular ROS production | 1040 ± 200 | 1040 ± 200 | did not increase spontaneous ATP liberation | failed to influence it | decreased significantly intracellular ROS production | 5.24 ± 0.57 | 5.24 ± 0.57 | 590 ± 10 |  |  | 
2 | O=C1Oc2cc(O)ccc2CC1c1ccc(O)cc1 (stereo not shown) [HHDC, 7-Hydroxy-3-(4′-hydroxyphenyl)-3,4-dihydrocoumarin] | did not affect phosphorylation of PKCδ |  |  |  | decreased significantly extracellular ROS production | 1010 ± 130 | 1010 ± 130 | did not increase spontaneous ATP liberation | failed to influence it | slightly effective only in the highest concentration tested | > 100 |  | 2470 ± 40 | did not significantly influence PKC activity | lower values of the partition coefficient | 2470 ± 40
